Reference: patent US20240269128A1, “COMPOUNDS FOR TREATING OR PREVENTING ALZHEIMER'S DISEASE” (THE UNITED STATES OF AMERICA, as represented by the …, priority 2021, published 2024)

Test system: H4-hAPP cells
Assay: Aβ secretion assay
Type: cell-based, human
Procedure: (§1) Aβ Secretion: H4-hAPP cells were cultivated in Opti-MEM supplemented with 10% FCS, 1% penicillin/streptomycin 200 μg/mL Hygromycin B and 2.5 μg/mL Blasticidin S. H4-hAPP cells were seeded into 96 well plates (2×10^4 cells per well). On the next day, cells in 96 well plates were treated with compounds, R.I. (DAPT 400 nM) or vehicle. 24 h later, supernatants were collected for further Aβ measurements by MSD® (V-PLEX Aβ Peptide Panel 1 (6E10) Kit, K15200E, Mesoscale Discovery).
as §1, with “secretion: Human APP overexpressing” for “Secretion:”, “HCQ (0.25 μM, 2.5 μM and 25 μM) or the reference item” for “with compounds, R.I.”, “nM), a γ-secretase inhibitor” for “nM) or”
(§2) Cultivation and treatment of H4-hAPP cells: H4-hAPP cells were thawed and cultivated in Opti-MEM supplemented with 10% FCS, 1% penicillin/streptomycin 200 μg/ml Hygromycin B and 2.5 μg/ml Blasticidin S (=culture medium). H4-hAPP cells were seeded into 96 well plates (2×10^4 cells per well). On the next day, cells in 96 well plates were treated with TUDCA (100 μM (C1), 10 μM (C2), or 1.0 μM (C3)), R.I. (DAPT 400 nM) or vehicle. Alternatively, cells in 96 well plates were treated with 25 μM HCQ/0.1 μM TUDCA (C1), 2.5 μM HCQ/100 μM TUDCA (C2), and 2.5 μM HCQ/10 μM TUDCA (C3). 24 h later, supernatants were collected for further Aβ measurements by MSD. The experiment was performed in n=6 technical replicates for all groups.
(§3) Aβ38, 40, 42 measurement: Supernatants were diluted 1:10 and analyzed for human Aβ38, 40, and 42 with MSD® 96-well MULTI-SPOT® 6E10 Abeta Triplex Assay (Mesoscale Discovery, Rockville, MD). The immune assay was carried out according to the manual and plates are read on the MESO QuickPlex SQ 120 multiplexing instrument. Analyte levels were evaluated according to adequate Aβ peptide standards (MSD) as pg per mL.
Aβ Secretion: H4-hAPP cells were cultivated in Opti-MEM supplemented with 10% FCS, 1% penicillin/streptomycin, hygromycin B (200 μg/ml), and blasticidin S (2.5 μg/ml). H4-hAPP cells were seeded into 96-well plates (2×10^4 cells per well). On the next day, cells in 96-well plates were treated with compounds, reference item [400 nM N-[N-(3,5-difluorophenacetyl-1-alanyl)]-S-phenylglycine t-butyl ester (DAPT)], or vehicle. Twenty-four hours later, supernatants were collected for further Aβ measurements by MSD [V-PLEX Aβ Peptide Panel 1 (6E10) Kit, K15200E, Mesoscale Discovery].
as §2, with “Culture” for “Cultivation”, “T.I.,” for “TUDCA (100 μM (C1), 10 μM (C2), or 1.0 μM (C3)),”, “vehicle.” for “vehicle. Alternatively, cells in 96 well plates were treated with 25 μM HCQ/0.1 μM TUDCA (C1), 2.5 μM HCQ/100 μM TUDCA (C2), and 2.5 μM HCQ/10 μM TUDCA (C3).”
as §3, with “measurement in H4-hAPP cells:” for “measurement:”, “Discovery).” for “Discovery, Rockville, MD).”, “were” for “are”, “120.” for “120 multiplexing instrument.”

Row | SMILES | secreted Aβ1-42 (HCQ 0.25 μM, 2.5 μM and 25 μM) | secretion of Aβ1-38 (TUDCA 100, 10, 1.0 μM, 24 h) | secretion of Aβ1-40 (TUDCA 100, 10, 1.0 μM, 24 h) | secretion of Aβ1-42 (TUDCA 100, 10, 1.0 μM, 24 h) | effect in Aβ release (H4 cells) (posterior probability of a protective effect)
1 | CCN(CCO)CCCC(C)Nc1ccnc2cc(Cl)ccc12 (centres unmarked) [HCQ, hydroxychloroquine] | did not alter |  |  |  | 
2 | C[C@H](CCC(=O)NCCS(=O)(=O)O)[C@H]1CC[C@H]2[C@@H]3[C@@H](O)C[C@@H]4C[C@H](O)CC[C@]4(C)[C@H]3CC[C@]12C [TUDCA, tauroursodeoxycholic acid] |  | lowers | lowers | lowers | protective
